Consider 21 compounds from the supplement of paper PMC10290057.

Test [1] relates to HCT116. Kind of test: AC50 cell viability (CellTiter-Glo); higher = less potent. The following applies: 48 h. (In general: ATP-based viability assays read luminescence as a measure of living cells.)
For test [2], the system named is HCT116. The test can be described thus: efficacy (fitted maximal change in viability relative to DMSO control); higher = less cytotoxic (negative = loss of viability). The following applies: 48 h.

Molecules are shown by their SMILES.
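For AC50 cell viability (CellTiter-Glo) in this document: HCT116 colorectal carcinoma cells screened at five concentrations per compound, luminescent viability scaled between DMSO wells and empty wells on each plate, curves fitted per compound.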
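For efficacy (fitted maximal change in viability relative to DMSO control) in this document: Luminescence-based viability readout, five doses per compound, normalized against on-plate DMSO and empty-well controls, followed by dose-response curve fitting for every drug.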

In the case of `CC(=O)NCC(=O)N1[C@@H]2CC[C@H]1c1ccc(Nc3ncc(C(F)(F)F)c(NC4CCC4)n3)cc12`, the AC50 cell viability in test [1] was 1.48 µM. Also, in test [2], the efficacy is -73.5%.

The compound `CC(C)c1ccc(Cn2ccc3c4c(N)nc(NC5CC5)nc4ccc32)cc1` registered an AC50 cell viability in test [1] of 0.332 µM. The efficacy in test [2] was -102%.

For `Cc1ccc(C(N)=O)cc1Nc1nccc(-c2cn(C(C)C)c3cnccc23)n1`, the AC50 cell viability in test [1] came out at 2.09 µM. Besides, in test [2], the efficacy was -69.4%.

Consider `Cc1ccc(NC(=O)c2ccc3c(c2)OCCO3)cc1NC(=O)c1ccc2nc(OCCN3CCCC3)ccc2c1`, for which, in test [1], the AC50 cell viability was determined as 0.0407 µM. Further, the efficacy in test [2] was -69.9%.

For the compound `Cc1n[nH]c2ccc(-c3cncc(OC[C@@H](N)Cc4c[nH]c5ccccc45)c3)cc12`, in test [1], the AC50 cell viability amounted to 0.417 µM. Also, the efficacy in test [2] is -80.2%.

On to `CCc1cccc(CC)c1NC(=O)N1Cc2[nH]nc(NC(=O)c3ccc(N4CCN(C)CC4)cc3)c2C1`, for which the AC50 cell viability in test [1] worked out at 11.8 µM. The efficacy in test [2] was -88.9%.

With `CCCCOc1c(C(=O)c2c(F)cc(C)cc2F)cnc2[nH]ncc12`, the AC50 cell viability in test [1] came out at 1.32 µM. Besides, in test [2], the efficacy was -75.8%.

Turning to `CNC(=O)c1ccccc1Nc1nc(Nc2ccc3c(c2OC)CCC[C@@H](N2CCN(CCO)CC2)C3)ncc1Cl`, the AC50 cell viability in test [1] came out at 4.17 µM. The efficacy in test [2] is -110%.

Take `CNC(=O)Cn1cc(-c2ccc3c(c2)C(F)CC32NC(=O)N(CC(=O)N(Cc3ccc(F)cc3)[C@@H](C)C(F)(F)F)C2=O)cn1` (some centres not stated): the AC50 cell viability in test [1] came out at 0.742 µM. In addition, the efficacy in test [2] was -47.8%.

As for `CNc1nc(-c2ccc3c(N)n[nH]c3c2)cc(N2C[C@@H](C(=O)NC3CCCCC3)CC[C@H]2C)n1`, the AC50 cell viability in test [1] stood at 18.6 µM. Also, the efficacy in test [2] was -110%.

`COc1cc(C)c(Sc2cnc(NC(=O)c3ccc(CNC(C)C(C)(C)C)cc3)s2)cc1C(=O)N1CCN(C(C)=O)CC1` (configuration not stated) had an AC50 cell viability in test [1] of 11.8 µM. In test [2], the efficacy was -110%.

In the case of `COC1=C(NC2=NC=C(Cl)C(=N2)N[C@@H]3[C@H]\4C[C@@H](\C=C4)[C@H]3C(N)=O)C=CC5=C1CCC(CC5)N6CCOCC6` (some centres not stated), the AC50 cell viability in test [1] stood at 4.17 µM. Moreover, the efficacy in test [2] is -74.2%.

With `COc1cc(N2CCC(N(C)C)CC2)ccc1Nc1ncc(Cl)c(Nc2ccccc2P(C)(C)=O)n1`, in test [1], the AC50 cell viability worked out at 0.742 µM. In addition, the efficacy in test [2] was -87.7%.

In turn, `COc1cc(C(=O)NC2CCN(C)CC2)ccc1Nc1ncc2c(n1)N(C1CCCC1)CCC(=O)N2C(C)C` had an AC50 cell viability in test [1] of 14.8 µM. Besides, in test [2], the efficacy was -107%.

Take `COc1ccc(-c2cc3c(C)nc(N)nc3n([C@H]3CC[C@H](OCCO)CC3)c2=O)cn1`: the AC50 cell viability in test [1] worked out at 0.332 µM. The efficacy in test [2] is -71.8%.

With `COc1ccc(CCN(C)CCCOc2ccc([S+](=O)([O-])c3c(C(C)C)c4ccccc4n3C)cc2)cc1OC`, in test [1], the AC50 cell viability came to 8.33 µM. In addition, the efficacy in test [2] was -91.8%.

As to `COc1ccc2nc3[nH]nc(C)c3c(NCCOCCO)c2c1`, the AC50 cell viability in test [1] came to 18.6 µM. For the same compound, the efficacy in test [2] is -82.9%.

`COCCOc1ccc2c(c1)ncn2-c1ccc2cccc(N3CCC(N)CC3)c2n1` returned an AC50 cell viability in test [1] of 2.95 µM. Moreover, the efficacy in test [2] was -85.5%.

For `Cc1ccc(-c2ccc3c(ccc4sc5c(c43)NC[C@@H](C)NC5=O)n2)cn1`, the AC50 cell viability in test [1] was 20.9 µM. The efficacy in test [2] was -96.2%.

In the case of `C[C@@]1(c2ncncc2F)NC(=O)c2cc(-c3cn[nH]c3)ccc21`, in test [1], the AC50 cell viability stood at 14.8 µM. Moreover, in test [2], the efficacy is -101%.

As to `N[S+](=O)([O-])c1ccc(Cc2c(-c3cccc(-c4ccccc4)c3)nn(-c3nc(C(=O)O)cs3)c2CC2CC2)cc1`, in test [1], the AC50 cell viability was 14.8 µM. Also, in test [2], the efficacy is -43.2%.
